Assay results from article PMC7158045 (BMC Plant Biology, 2020).

Key:
[1] = target: T1, ZmDRIK1 (DROUGHT RESPONSIVE INACTIVE KINASE 1), kinase domain (Zea mays, UniProt C0P4K9); experiment: biochemical; conditions: read-out: dTm B, sheet ZmDRIK1-R187-S514;; DSF, Boltzmann fit, 0.1% DMSO
T1 construct: gene ZEAMMB73_Zm00001d028770; ZmDRIK1-KD R187-S514 (kinase domain)
T1 sequence (C0P4K9 187-514): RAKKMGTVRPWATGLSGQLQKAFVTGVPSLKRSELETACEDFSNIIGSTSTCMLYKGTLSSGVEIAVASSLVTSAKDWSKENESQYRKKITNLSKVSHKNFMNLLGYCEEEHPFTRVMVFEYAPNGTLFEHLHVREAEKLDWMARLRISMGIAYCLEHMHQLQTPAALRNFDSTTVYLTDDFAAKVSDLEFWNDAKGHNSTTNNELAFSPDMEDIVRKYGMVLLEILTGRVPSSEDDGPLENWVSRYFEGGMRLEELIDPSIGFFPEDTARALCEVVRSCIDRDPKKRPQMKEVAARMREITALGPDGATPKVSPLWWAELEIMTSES

ZmDRIK1-R187-P492 = target: T2, ZmDRIK1-R187-P492 (Zea mays, UniProt C0P4K9); experiment: biochemical; conditions: read-out: dTm B, DSF, Boltzmann fit, 0.1% DMSO
T2 construct: kinase domain, R187-P492
T2 sequence (C0P4K9 1-514): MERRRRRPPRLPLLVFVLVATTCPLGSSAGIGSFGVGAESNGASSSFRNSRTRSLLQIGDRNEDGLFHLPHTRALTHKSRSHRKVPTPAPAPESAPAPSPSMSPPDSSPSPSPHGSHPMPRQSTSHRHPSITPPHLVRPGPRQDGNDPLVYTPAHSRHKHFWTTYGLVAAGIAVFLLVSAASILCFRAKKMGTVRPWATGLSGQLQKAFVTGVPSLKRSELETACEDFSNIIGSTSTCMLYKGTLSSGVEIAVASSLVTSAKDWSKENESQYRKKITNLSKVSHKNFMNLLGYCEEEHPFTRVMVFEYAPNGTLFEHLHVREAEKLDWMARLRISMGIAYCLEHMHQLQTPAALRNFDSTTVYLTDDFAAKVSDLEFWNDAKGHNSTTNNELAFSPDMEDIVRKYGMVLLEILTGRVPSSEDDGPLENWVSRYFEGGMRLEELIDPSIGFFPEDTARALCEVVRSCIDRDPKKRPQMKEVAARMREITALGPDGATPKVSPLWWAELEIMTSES

[2] = target: T1, ZmDRIK1 (DROUGHT RESPONSIVE INACTIVE KINASE 1), kinase domain; experiment: ITC; cocrystal structure at […] Å; DSF (ΔTm > […] °C); format: binding
ZmDRIK1-K217-P492 = target: T3, ZmDRIK1-K217-P492 (Zea mays, UniProt C0P4K9); experiment: biochemical; conditions: read-out: dTm B, sheet ZmDRIK1-K217-P492;; DSF, Boltzmann fit, 0.1% DMSO
T3 construct: kinase domain, K217-P492
T3 sequence (C0P4K9 1-514): T2 sequence (C0P4K9 1-514)

ZmDRIK1-K217-S514 = target: T4, ZmDRIK1-K217-S514 (Zea mays, UniProt C0P4K9); experiment: biochemical; conditions: read-out: dTm B, sheet ZmDRIK1-K217-S514;; DSF, Boltzmann fit, 0.1% DMSO
T4 construct: kinase domain, K217-S514
T4 sequence (C0P4K9 1-514): T2 sequence (C0P4K9 1-514)

Compound	ΔTm at 10 µM [1] [°C]	ΔTm at 10 µM (ZmDRIK1-R187-P492) [°C]	Kd [2] [nM]	ΔTm at 10 µM (ZmDRIK1-K217-P492) [°C]	ΔTm at 10 µM (ZmDRIK1-K217-S514) [°C]
Cc1cc(Nc2cc(N3CCN(C)CC3)nc(/C=C/c3ccccc3)n2)n[nH]1 [ENMD-2076]	4.28	4.32	551	3.49	4.13
Cc1cc(N2CCOCC2)cc2[nH]c(-c3c(NC[C@@H](O)c4cccc(Cl)c4)cc[nH]c3=O)nc12 [BMS-536924]	-0.852	-0.284		-1.5	-0.645
O=C(Nc1ccc(OC(F)(F)F)cc1)c1sccc1NCc1ccnc2ccccc12 [OSI-930]	-0.0551	-3.67		-0.971	-5.53
COCCOc1ccc2c(c1)ncn2-c1ccc2cccc(N3CCC(N)CC3)c2n1 [CP-673451]	-0.398	-0.00299		0.203	0.216
CO[C@H]1C[C@@H]2CC[C@@H](C)[C@@](O)(O2)C(=O)C(=O)N2CCCC[C@H]2C(=O)O[C@H]([C@H](C)C[C@@H]2CC[C@@H](OC(=O)C(C)(CO)CO)[C@H](OC)C2)CC(=O)[C@H](C)/C=C(\C)[C@@H](O)[C@@H](OC)C(=O)[C@H](C)C[C@H](C)/C=C/C=C/C=C/1C [Temsirolimus (CCI-779)]	-2.07	-0.393		-1.36	-0.361
N#Cc1ccc2[nH]c(O)c(-c3ccc(CN4CCOCC4)cn3)c2c1 [AZD1080]	-1.22	-0.506		-0.787	-0.298
CNC(=O)c1cccc(-c2ccc3c(N4CCOC[C@@H]4C)nc(N4CCOC[C@@H]4C)nc3n2)c1 [AZD2014]	-0.732	-0.208		-0.984	-0.171
CN[C@@H]1C[C@H]2O[C@@](C)([C@@H]1OC)n1c3ccccc3c3c4c(c5c6ccccc6n2c5c31)C(=O)NC4 [Staurosporine]	-0.601	-0.154		-0.631	-0.232
COc1cc2ncnc(Nc3ccc(O)c(Br)c3)c2cc1OC [WHI-P154]	0.428	1.76		0.694	2.03
CC1(C)CNc2cc(NC(=O)c3cccnc3NCc3ccncc3)ccc21 [Motesanib Diphosphate (AMG-706)]	-0.808	-0.24		-1.01	-0.221
Cc1cc(C(=O)NOCCO)c(Nc2ccc(I)cc2F)n(C)c1=O [AZD8330]	-0.935	-0.162		-0.83	-0.42
C[C@]1(O)C[C@@H](c2nc(-c3ccc4ccc(-c5ccccc5)nc4c3)c3c(N)nccn32)C1 [OSI-906 (Linsitinib)]	-0.97	-0.547		-0.53	-0.681
